Data on one compound can be found in US20250325565A1, “ERAVACYCLINE FOR TREATING CANCER” (B. G. NEGEV TECHNOLOGIES AND APPLICATIONS LTD., priority 2022, published 2025).

Each structure is given as a SMILES string.

For one data set, the system named is MCF-7 cells. The experiment in a line: XTT cell proliferation assay, MCF-7. It counts as cell-based, human. The settings on record: MCF-7, 72 h, 1-50 μM. As to the method: (§1) Human PDAC (AsPC-1, BxPC-3, Panc-1 scr, Panc-1 p53-R273H knock-out (KO) hTERT-HPNE), breast (MCF-7), lung (A549), and colon (HT-29) cancer cell lines were purchased from the American Type Culture Collection (ATCC). The MCF-7, A549, Panc-1 scr, Panc-1 p53 KO and HT-29 cell lines were grown in Dulbecco's Modified Eagle Medium (DMEM; Biological Industries, Beit HaEmek (BI), Israel), and the BxPC-3 and AsPC-1 cell lines were cultured in Roswell Park Memorial Institute-1640 (RPMI-1640; BI, Israel) medium. All media was supplemented with 10% fetal bovine serum (FBS), 200 μM L-glutamine (BI), and 1% penicillin-streptomycin (BI). Cells were cultured at 37° C. in a 5% CO2 humidified incubator.
Eravacycline dihydrochloride (MedChem Express (MCE)) was dissolved in […] (DDW). Tigecycline (MCE) and omadacycline (MCE) were dissolved in dimethyl sulphoxide (DMSO). All drugs were prepared as 100 mM stock solutions. All cell lines were treated with DMSO as a control (less than 0.1%) or tigecycline, omadacycline, or eravacycline (at the indicated concentrations) for 72 hours. Cell viability and proliferation were determined using the XTT Cell Proliferation Assay Kit (Promega).
(§2) The XTT Cell Proliferation Assay Kit was used to determine cell viability and proliferation. Cells were seeded in 96-well plates at a density of 4,000 cells per well and allowed to attach overnight in a 5% CO2 incubator at 37° C. […] After shaking the plate gently to distribute the dye in the wells, the absorbance was measured with a spectrophotometer (Bio-RadiMark Microplate Absorbance reader) at a wavelength of 450 nm and a reference wavelength of 655 nm.
To evaluate the half maximal inhibitory concentration (IC50) of tetracycline derivatives on five different cell lines (MCF-7, A549, HT-29, BxPC-3, and AsPC-1), the cells were seeded and allowed to attach overnight. […] Inhibition of cell proliferation was determined using the XTT Cell Proliferation Assay Kit. […]

The subject of another data set is BxPC-3 xenograft tumors. The experiment in a line: BxPC-3 cell xenograft tumor model. In kind it is in vivo, athymic nude mice. As to conditions: nude mice. The protocol: Six-week-old female athymic nude mice were purchased from Envigo (Jerusalem, Israel) and housed in pathogen-free conditions and fed a standard sterilized diet. The mice were housed in humidity- and temperature-controlled conditions, and the light/dark cycle was set at 12 h intervals. The animal protocol was reviewed and approved by the Committee for the Ethical Care and Use of Animals in Research at Ben-Gurion University of the Negev, complying with the Israeli Animal Welfare Law. BxPC-3 cells (4×10^6) were injected subcutaneously into one flank of the mice. Tumor size was measured every other day based on caliper measurements of tumor length and width (volume=tumor length×width^2×0.5236). Ten days later, when tumors were palpable and reached volumes of 50-150 mm^3, the mice bearing tumors were randomly assigned to control or eravacycline groups (n=6). Treatment was administered every two days using either phosphate buffered saline (PBS), eravacycline (10 mg/kg by i.p. injection) or gemcitabine (25 mg/kg by i.p. injection) for 10 days. The tumor growth and mouse weight were measured every other day during the treatment period. After the last treatment, the mice were monitored for an additional six days, and then the experiment was terminated. The mice were then sacrificed, the tumors were excised, photographed, and measured, and the tumor tissues were snap-frozen, pending analysis.
To further assess the inhibition effect of eravacycline on human PDAC cells in vivo, BxPC-3 cells were injected subcutaneously into nude mice to establish xenograft models for in vivo experiments. The mice were randomly divided into three groups: the control group, the gemcitabine group (25 mg/kg), and the eravacycline group (10 mg/kg). Following the last administration of treatment, mice were monitored for an additional six days; then the experiment was terminated, the mice were sacrificed, and the tumors were excised, photographed, and weighed (FIGS. 6B-6D).

The test system of a further data set is POLK. The experiment in a line: Western blot of POLK protein expression in BxPC-3 cells. In kind it is cell-based, human. As to conditions: BxPC-3, 72 h, increasing concentrations.
Another data set relates to BxPC-3 cells. The experiment in a line: Scratch wound healing (cell migration) assay. It counts as cell-based, human. The settings on record: BxPC-3, 10 μM, 0, 24, 48 and 72 hours. As to the method:
BxPC-3 cells were cultured in six well plates to full confluence; then the monolayer of the cells was scratched using a 200 μl pipette tip. Subsequently, PBS was used to wash and remove floating and damaged cells, and medium alone or medium containing 10 μM eravacycline was added to the cells for further culture. Cell migration over the denuded area was observed and captured at the indicated times with a Nikon ECLIPSE Ts2 fluorescence microscope, equipped with DS-Fi3 camera. The wound closure rates were also measured at the indicated time points.
As one of the most malignant types of digestive tract cancer cells, PDAC cells have powerful migration and invasiveness capabilities. Therefore, the effect of eravacycline on cell migration abilities was investigated.

Data set [1] relates to Panc-1 scr, Panc-1 p53-R273H knock-out (KO) cell lines. In words: XTT cell proliferation assay, Panc-1 cell lines. As to conditions: 72 h, 1-50 μM. It counts as cell-based, human. As to the method: as §1
as §2, with “C. After overnight incubation, cells were treated with culture medium or in a medium containing tigecycline, omadacycline, or eravacycline at different concentrations (1, 2, 5, 10, 25, and 50 μM) for the indicated time period.” for “C.”, “nm. […]” for “nm.”
(Formazan colour is commonly taken as a measure of viable cells.)

[2] abbreviates: 10 mg/kg i.p. every two days for 10 days.

With `CN(C)[C@@H]1C(O)=C(C(N)=O)C(=O)[C@@]2(O)C(O)=C3C(=O)c4c(O)c(NC(=O)CN5CCCC5)cc(F)c4C[C@H]3C[C@@H]12` [eravacycline, (4S,4aS,5aR,12aS)-4-(Dimethylamino)-7-fluoro-3,10,12,12a-tetrahydroxy-1,11-dioxo-9-[2-(pyrrolidin-1-yl)acetamido]-1,4,4a,5,5a,6,11,12a-octahydrotetracene-2-carboxamide], the “effect on cell survival / proliferation (in words)” value with MCF-7 cells was “No significant effect”. Besides, in the data set with BxPC-3 xenograft tumors (setting [2]), the “mouse weight loss vs control group” value is “no significant weight loss” and the tumor growth blocked was 76%. For the same compound, the “tumor volume and tumor weight compared with gemcitabine (25 mg/kg)” value with BxPC-3 xenograft tumors (10 mg/kg i.p.) is recorded as “superior to gemcitabine treatment”. In the data set on POLK, the “POLK protein expression vs control” value is “significantly reduced”. Moreover, the “migration rate to wound vs control” value in the data set with BxPC-3 cells is recorded as “significantly lower migration rate”. The “effect on cell viability (in words)” value in data set [1] is reported as “No significant effect”. In data set [1] (listed as Eravacycline), the “effect on cell viability (in words)” value was “no toxicity was observed”.
